Patent US8158828B2, “Nuclear receptor binding agents” (priority 2005, dated 2012)
Entries after “also recorded” stand apart in the source; their conditions may differ.

Legend:
PC-3 cells = assay: Androgen independent prostate cancer cell growth; format: cell-based; conditions: for PC-3 growth inhibition, qualitative grading: in vitro, data not shown; for inhibition at 10 µM: Homo sapiens, PC-3, 72 hrs
Method: PC-3 cells were plated in RPMI+10% csFBS at 6000 cells per well of a 96 well plate. Medium was changed to RPMI+1% csFBS without phenol red and then treated for 72 hrs with increasing concentrations of SERMs.
The prostate cancer cell line PC-3 was plated in RPMI+10% csFBS at 6000 cells per well of a 96 well plate. Medium was changed to RPMI+1% csFBS without phenol red and cells were treated for 72 hrs with increasing concentrations of SERMs.
PC-3 growth inhibition was determined qualitatively, in vitro, and represented as a grading system based on the ability of the SERMs to inhibit growth. The number −4 is for compounds that induced 100% growth inhibition at 1 uM, −3 for compounds that inhibit growth by about 75-90%, −2 for about 50-70% and −1 for inhibition less than 50% growth.

uterus = assay: In vivo estrogenic activity, uterine weight; set-up: species or system rat; conditions: female rats; for estrogenic activity in terms of uterine weight: compound alone
Method: Rats that were administered the vehicle alone served as controls.

[1] = tested on: pS2 (gene encoding the trefoil peptides) in MCF-7 cells; assay: pS2 gene expression in MCF-7 cells (realtime RT-PCR); format: cell-based; conditions: 16 hrs
Method: MCF-7 cells were plated at 500,000 cells per well of a 6 well plate. RNA was isolated and the message levels of pS2 (gene encoding the trefoil peptides) measured and normalized to 18S ribosomal RNA by realtime polymerase chain reaction (rtPCR).
FIG. 11: Agonistic activity of the indicated compounds in MCF-7 cells. MCF-7 cells were plated at 500,000 cells per well of a 6 well plate. RNA was isolated and the message levels of pS2 gene measured and normalized to 18S ribosomal RNA by realtime rtPCR.
MCF-7 cells were plated at 500,000 cells per well of a 6 well plate. The cells were serum starved for 3 days and then were treated as above for 16 hrs. RNA was isolated and gene expression levels assessed by realtime RT-PCR, following normalization to 18S ribosomal RNA.

ER-α = target: T1, ER-α (Rattus norvegicus, UniProt P06211); assay: ER-α transactivation, ERE-LUC in COS or 293 cells; format: cell-based; set-up: % estardiol activity, ER-α: dose or concentration left out as unconfirmed
T1 sequence (P06211 1-600): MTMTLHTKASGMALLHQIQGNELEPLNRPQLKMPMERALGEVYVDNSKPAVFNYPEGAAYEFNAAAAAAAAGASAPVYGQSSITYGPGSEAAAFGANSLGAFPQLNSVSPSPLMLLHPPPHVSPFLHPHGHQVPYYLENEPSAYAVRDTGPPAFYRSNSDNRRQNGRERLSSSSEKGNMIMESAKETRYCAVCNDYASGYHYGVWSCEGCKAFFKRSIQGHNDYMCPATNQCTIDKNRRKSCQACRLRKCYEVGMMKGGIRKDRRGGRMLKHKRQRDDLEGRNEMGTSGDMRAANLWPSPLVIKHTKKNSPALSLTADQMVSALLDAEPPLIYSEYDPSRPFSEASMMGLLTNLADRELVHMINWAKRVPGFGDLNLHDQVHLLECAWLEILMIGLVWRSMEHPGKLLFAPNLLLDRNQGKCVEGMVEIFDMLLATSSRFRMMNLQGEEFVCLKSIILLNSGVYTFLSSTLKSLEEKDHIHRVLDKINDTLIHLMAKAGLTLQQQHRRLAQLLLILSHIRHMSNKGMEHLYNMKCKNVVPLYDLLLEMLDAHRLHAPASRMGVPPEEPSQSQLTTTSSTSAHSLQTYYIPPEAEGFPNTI
Method: FIG. 1: Effects of the indicated compounds on ER-α transactivation. COS or 293 cells plated in DME without phenol red+10% charcoal stripped fetal bovine serum (csFBS) at 90,000 cells per well of 24 well plates were transfected with 0.25 μg ERE-LUC, 0.02 μg CMV-LUC (Renilla) and 25 ng of ER-α by lipofectamine. Twenty four hours after transfection, the cells were treated as indicated in the figure, harvested 48 hrs after transfection and were assayed for firefly and renilla luciferase.
(§1) FIG. 5: Effect of the indicated compounds on ER-α transactivation. COS or 293 cells plated in DME without phenol red+10% csFBS at 90,000 cells per well of a 24 well plate were transfected with 0.25 μg ERE-LUC, 0.02 μg CMV-LUC (Renilla) and 5 ng of ER-α by lipofectamine. Twenty four hours after transfection, the cells were treated as indicated in the figure, harvested 48 hrs after transfection and were assayed for firefly and renilla luciferase.
as §1, with “FIG. 9:” for “FIG. 5:”, “csFBS” for “csFBS at 90,000 cells”, “and 25” for “and 5”
Also 25 ng of ER-α (FIGS. 1, 5, and 9), 50 ng of ER-β (FIGS. 2, 6 and 10) or 12.5 ng of AR (FIG. 3) were introduced by lipofectamine. All the receptors were cloned from rat tissue into the PCR3.1 vector backbone. […] Cells were harvested 48 hrs after transfection, and assayed for firefly and Renilla luciferase activity.
Also 25 ng of ER-α), 50 ng of ER-β or 12.5 ng of AR were introduced by lipofectamine. All the receptors were cloned from rat tissue into the PCR3.1 vector backbone. […] Cells were harvested 48 hrs after transfection, and assayed for firefly and Renilla luciferase activity.

ER-β = target: T2, ER-β (Rattus norvegicus, UniProt Q62986); assay: ER-β transactivation, ERE-LUC in COS or 293 cells; format: cell-based; conditions: COS or 293 cells
T2 construct: expressed in transfected cells; host or cells: COS or 293 cells
Method: as §1, with “FIG. 2:” for “FIG. 5:”, “on ER-β” for “on ER-α”, “and 50” for “and 5”, “of ER-β” for “of ER-α”
as §1, with “FIG. 6:” for “FIG. 5:”, “on ER-β” for “on ER-α”, “and 50” for “and 5”, “of ER-β” for “of ER-α”, “and” for “and were”
as §1, with “FIG. 10:” for “FIG. 5:”, “on ER-β” for “on ER-α”, “in DME+10%” for “in DME without phenol red+10%”, “and 50” for “and 5”, “of ER-β” for “of ER-α”
(§2) All the receptors were cloned from rat tissue into the PCR3.1 vector backbone. […] Cells were harvested 48 hrs after transfection, and assayed for firefly and Renilla luciferase activity.
as §2

[2] = tested on: TRAP positive multinucleated osteoclasts; assay: TRAP positive multinucleated osteoclasts from bone marrow cells; format: cell-based, rat; conditions: RANKL and GMCSF, 12 days
Method: FIG. 7: Effect of the indicated compounds on TRAP positive multinucleated osteoclasts. Bone marrow cells from rat femur was cultured in Alpha MEM+10% csFBS without phenol red in the presence or absence of 30 ng/ml RANKL and 10 ng/ml GMCSF. The cells were treated for 12 days and were stained for tartarate resistant acid phosphatase activity (TRAP) and multinucleated osteoclasts were counted.
Bone marrow cells isolated from rat femur were cultured in Alpha MEM without phenol red+10% sterile FBS without phenol red in the presence or absence of […] RANKL and 10 ng/ml GMCSF. The cells were treated for 12 days were stained for tartarate resistant acid phosphatase activity (TRAP) positive multinucleated osteoclasts and were counted.

[3] = Metabolic stability in human liver microsomes; conditions: 1 μM substrate, 0.5 mg/mL microsomes
Method: Each substrate or reference control was dissolved at a concentration of 10 mM in DMSO, from which a 5 μM spiking solution was prepared by dilution in water. Substrates (1 μM) were incubated in the presence of human liver microsomes (Xenotech LLC, Kansas City Mo.) at 0.5 mg/mL fortified with an NADPH regenerating system at 37° C. and pH 7.4. The NADPH regenerating system consisted of glucose-6-phosphate dehydrogenase (1 units/mL) in 0.05M K2HPO4. Duplicate incubations were performed in 96-well polypropylene cluster tubes in a final volume of 250 μL per reaction. At 0, 2, 4, 6, 10, 30, and 60 minutes a stop solution (300 μL acetonitrile) was added to aliquots of the reaction mixture. Precipitated protein was removed by centrifugation (3000 rpm for 15 minutes) and the supernatants were transferred to clean 96-well plates for analysis.
The samples were injected onto a Phenomenex Luna hexylphenyl 50×2 mm i.d. 5 uM, column fitted with a guard column. An isocratic mobile phase consisting of 50% acetonitrile and 0.1% formic acid in water was used at a flow rate of 0.3 mL/min. The protonated molecular ion (M+H)^+ of the analyte was monitored by MDS/Sciex API 4000QTrap triple quadrupole mass spectrometer using electrospray positive mode ionization with a temperature of 500° C. and a spray voltage of 4000V. Total analysis time was 1.5 min per sample.
Metabolic stability was defined as the amount of substrate metabolized by the incubation with hepatic microsomes and expressed as a percentage of the initial amount of substrate (% remaining) based on peak area. Initial substrate concentration for each analyte was 1 μM. The initial peak area of each substrate was determined at time zero and metabolic stability was assessed based on the change in analyte peak area from time 0 min to a single fixed timepoint for each sample (2-60 min, representative timepoints are shown in Table 2 below).

T2 sequence (Q62986 whole entry): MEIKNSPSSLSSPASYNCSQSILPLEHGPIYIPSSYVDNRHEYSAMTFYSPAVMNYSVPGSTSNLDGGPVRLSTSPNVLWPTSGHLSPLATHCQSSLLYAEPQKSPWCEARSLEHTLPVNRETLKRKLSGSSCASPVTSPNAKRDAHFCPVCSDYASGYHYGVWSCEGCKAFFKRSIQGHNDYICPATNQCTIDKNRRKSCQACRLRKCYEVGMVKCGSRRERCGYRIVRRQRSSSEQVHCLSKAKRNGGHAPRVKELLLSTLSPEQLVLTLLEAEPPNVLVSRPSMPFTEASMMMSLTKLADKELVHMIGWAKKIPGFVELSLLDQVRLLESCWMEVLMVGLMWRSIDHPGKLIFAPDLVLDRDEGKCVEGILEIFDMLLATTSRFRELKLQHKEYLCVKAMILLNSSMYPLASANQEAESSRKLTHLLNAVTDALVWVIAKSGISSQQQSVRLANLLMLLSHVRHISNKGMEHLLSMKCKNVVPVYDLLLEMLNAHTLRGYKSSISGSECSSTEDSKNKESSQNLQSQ

## Cl.O=C(c1ccc(OCCN2CCCCC2)cc1)N(c1ccccc1)c1ccc(O)cc1 [Compound 4e, N-(4-hydroxyphenyl)-N-phenyl-[4-(2-piperidin-1-ylethoxy)]-benzamide hydrochloride]
PC-3 cells
  PC-3 growth inhibition, qualitative grading: −1 (−1 for inhibition less than 50% growth)
uterus
  estrogenic activity in terms of uterine weight: exhibited no estrogenic, or anti-estrogenic activity in uterus

## O=S(=O)(c1ccc(O)cc1)N(c1ccccc1)c1ccccc1 [Compound 3l, 4-hydroxy-N,N-diphenyl-phenyl-sulfonamide]
[1]
  pS2 expression: increased pS2 expression levels
PC-3 cells
  PC-3 growth inhibition, qualitative grading: −2 (−2 for about 50-70%)
uterus
  estrogenic activity in terms of uterine weight: exhibited no estrogenic, or anti-estrogenic activity in uterus

## Cl.Cl.O=C(c1ccc(OCCN2CCCCC2)cc1)N(c1ccccc1)c1ccc(OCCN2CCCCC2)cc1 [Compound 4u, N-[4-(2-piperidin-1-ylethoxy)-phenyl]-N-phenyl-[4-(2-piperidin-1-ylethoxy)]-benzamide dihydrochloride]
ER-α
  % estardiol activity, ER-α: 12.8%
PC-3 cells
  inhibition at 10 µM: 100%
  PC-3 growth inhibition, qualitative grading: −3 (−3 for compounds that inhibit growth by about 75-90%)

## O=C(c1ccccc1)N(c1ccccc1)c1ccc(OCCN2CCCCC2)cc1 [Compound 4b, N-(phenyl)-N-[4-(2-piperidin-1-ylethoxy)-phenyl]-benzamide]
PC-3 cells
  PC-3 growth inhibition, qualitative grading: −1 (−1 for inhibition less than 50% growth)

## O=C(c1ccc(OCCN2CCCCC2)cc1)N(c1ccc(O)cc1)c1ccc(F)cc1 [Compound 4g, N-(4-fluorophenyl)-N-[4-hydroxyphenyl]-[4-(2-piperidin-1-ylethoxy)]-benzamide]
uterus
  estrogenic activity in terms of uterine weight: exhibited estrogenic activity, in terms of increased uterine weight; also recorded: exhibited estrogenic activity, in vivo
uterus; with ICI-182,780
  uterine weight increase, with ICI-182,780: ICI-182,780 reversed 4a and 4g effects on uterine weight increase
uterus; with estrogen
  uterine weight, coadministered with estrogen: an increase in uterine weight was observed

## O=C(c1cccc(O)c1)N(c1ccccc1)c1ccccc1 [Compound 3f, 3-hydroxy-N,N-diphenyl-benzamide]
[1]
  pS2 expression: increased pS2 expression levels
uterus
  estrogenic activity in terms of uterine weight: exhibited estrogenic activity, in vivo

## O=C(c1ccc(O)cc1)N(c1ccc(O)cc1)c1ccc(O)cc1 [Compound 3a, 4-hydroxy-N,N-bis-(4-hydroxyphenyl)-benzamide]
ER-α
  % estardiol activity, ER-α: 49.5%
ER-β
  ER-β LUC expression, compound alone: most potent in stimulating ER-β
[2]
  osteoclast differentiation / osteoclast activity: suppressed osteoclasts
uterus
  estrogenic activity in terms of uterine weight: exhibited estrogenic activity, in vivo
[3]; 0 min
  % Remaining 0 min: 100%
[3]; 10 min
  % Remaining 10 min: 140%
[3]; 30 min
  % Remaining 30 min: 118%
[3]; 60 min
  % Remaining 60 min: 103%

## Cl.Cl.O=C(c1ccc(OCCN2CCCCC2)cc1)N(c1ccc(F)cc1)c1ccc(OCCN2CCCCC2)cc1 [Compound 4r, N-(4-fluorophenyl)-N-[4-(2-piperidin-1-ylethoxy)-phenyl]-[4-(2-piperidin-1-yl-ethoxy)]-benzamide dihydrochloride]
PC-3 cells
  inhibition at 10 µM: 100%
  PC-3 growth inhibition, qualitative grading: −4 (The number −4 is for compounds that induced 100% growth inhibition at 1 uM)
